Results reported in PubChem BioAssay AID504553 (Southern Research Specialized Biocontainment Screening …, 2011).

These compounds were tested on MAGI-CCR5 cells, HIV-1 Ba-L, beta-gal luminescence, 48 h (assay: inhibitors of R5 HIV-1 replication in MAGI cells – MAGI-CCR5 cells, HIV-1 Ba-L, 2% serum, set 4, dose response (AID 504553)).

IC50, active:
Cc1c2c(=O)n(-c3nc4ccccc4s3)nc-2cc(O)n1Cc1ccccc1Cl 3.39 µM
Cc1c2c(=O)n(-c3nc4ccccc4s3)nc-2cc(O)n1CCc1ccc(O)cc1 23 µM
COc1ccc(CCn2c(O)cc3nn(-c4nc5ccccc5s4)c(=O)c-3c2C)cc1 4.64 µM
Cc1c2c(=O)n(-c3nc4ccccc4s3)nc-2cc(O)n1Cc1ccncc1 9.51 µM
Cc1c2c(=O)n(-c3nc4ccccc4s3)nc-2cc(O)n1Cc1cccs1 7.43 µM
COc1ccc(Cn2c(O)cc3nn(-c4nc5ccccc5s4)c(=O)c-3c2C)cc1 29.2 µM
Cc1c2c(=O)n(-c3nc4ccccc4s3)nc-2cc(O)n1Cc1ccc(F)cc1 3.53 µM
Cc1c2c(=O)n(-c3nc4ccccc4s3)nc-2cc(O)n1C1CC1 6.99 µM
Cc1c2c(=O)n(-c3nc4ccccc4s3)nc-2cc(O)n1Cc1ccccc1 9.28 µM
Cc1c2c(=O)n(-c3nc4ccccc4s3)nc-2cc(O)n1CCC(C)C 9.35 µM
COc1ccccc1Cn1c(O)cc2nn(-c3nc4ccccc4s3)c(=O)c-2c1C 19.6 µM
Cc1c2c(=O)n(-c3nc4ccccc4s3)nc-2cc(O)n1Cc1cccnc1 6.07 µM
Cc1c2c(=O)n(-c3nc4ccccc4s3)nc-2cc(O)n1CCc1cccs1 19 µM
